Test results taken from patent US20240261274A1, “TREATMENT OF MYC-DRIVEN CANCERS WITH GSPT1 DEGRADERS” (MONTE ROSA THERAPEUTICS, INC., priority 2021, published 2024).
Where two headings read alike, the source gives them in different places.

Tests used:
GSPT1 [1] = target: T1, GSPT1 (Homo sapiens, UniProt P15170+Q96SW2); assay: GSPT1 degradation by Compound 345 in cancer cell lines (western blot); format: cell-based; parameters: endogenous in cells; host or cells: MM1 S (ATCC CRL-2974); conditions: Compound 345 treated NSCLC lines plus Bortezomib 0.2 μM
T1 sequence (P15170 whole entry): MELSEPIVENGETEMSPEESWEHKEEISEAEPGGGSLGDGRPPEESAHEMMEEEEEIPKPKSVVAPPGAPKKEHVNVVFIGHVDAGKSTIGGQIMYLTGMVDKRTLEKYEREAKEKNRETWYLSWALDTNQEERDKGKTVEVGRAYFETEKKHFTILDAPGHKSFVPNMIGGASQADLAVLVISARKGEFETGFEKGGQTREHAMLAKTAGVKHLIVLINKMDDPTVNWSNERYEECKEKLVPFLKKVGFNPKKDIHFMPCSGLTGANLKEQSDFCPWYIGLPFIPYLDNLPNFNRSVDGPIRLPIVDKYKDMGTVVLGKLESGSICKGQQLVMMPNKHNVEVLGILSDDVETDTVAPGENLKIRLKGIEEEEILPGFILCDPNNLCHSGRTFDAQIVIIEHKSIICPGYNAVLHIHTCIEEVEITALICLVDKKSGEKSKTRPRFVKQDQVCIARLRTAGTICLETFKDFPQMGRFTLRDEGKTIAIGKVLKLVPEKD
T1 sequence (Q96SW2 whole entry): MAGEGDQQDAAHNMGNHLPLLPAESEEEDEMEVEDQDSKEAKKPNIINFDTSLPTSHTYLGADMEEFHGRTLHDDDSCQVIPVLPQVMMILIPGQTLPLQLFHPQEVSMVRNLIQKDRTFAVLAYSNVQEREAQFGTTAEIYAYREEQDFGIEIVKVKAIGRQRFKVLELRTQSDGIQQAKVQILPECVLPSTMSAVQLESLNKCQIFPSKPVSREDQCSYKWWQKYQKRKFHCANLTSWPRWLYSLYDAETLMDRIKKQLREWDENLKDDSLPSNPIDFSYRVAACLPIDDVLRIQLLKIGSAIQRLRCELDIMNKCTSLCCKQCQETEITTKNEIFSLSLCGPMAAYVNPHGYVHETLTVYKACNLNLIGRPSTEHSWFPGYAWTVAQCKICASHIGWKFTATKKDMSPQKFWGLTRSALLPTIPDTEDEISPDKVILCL
T1 sequence (Q16531 whole entry partner): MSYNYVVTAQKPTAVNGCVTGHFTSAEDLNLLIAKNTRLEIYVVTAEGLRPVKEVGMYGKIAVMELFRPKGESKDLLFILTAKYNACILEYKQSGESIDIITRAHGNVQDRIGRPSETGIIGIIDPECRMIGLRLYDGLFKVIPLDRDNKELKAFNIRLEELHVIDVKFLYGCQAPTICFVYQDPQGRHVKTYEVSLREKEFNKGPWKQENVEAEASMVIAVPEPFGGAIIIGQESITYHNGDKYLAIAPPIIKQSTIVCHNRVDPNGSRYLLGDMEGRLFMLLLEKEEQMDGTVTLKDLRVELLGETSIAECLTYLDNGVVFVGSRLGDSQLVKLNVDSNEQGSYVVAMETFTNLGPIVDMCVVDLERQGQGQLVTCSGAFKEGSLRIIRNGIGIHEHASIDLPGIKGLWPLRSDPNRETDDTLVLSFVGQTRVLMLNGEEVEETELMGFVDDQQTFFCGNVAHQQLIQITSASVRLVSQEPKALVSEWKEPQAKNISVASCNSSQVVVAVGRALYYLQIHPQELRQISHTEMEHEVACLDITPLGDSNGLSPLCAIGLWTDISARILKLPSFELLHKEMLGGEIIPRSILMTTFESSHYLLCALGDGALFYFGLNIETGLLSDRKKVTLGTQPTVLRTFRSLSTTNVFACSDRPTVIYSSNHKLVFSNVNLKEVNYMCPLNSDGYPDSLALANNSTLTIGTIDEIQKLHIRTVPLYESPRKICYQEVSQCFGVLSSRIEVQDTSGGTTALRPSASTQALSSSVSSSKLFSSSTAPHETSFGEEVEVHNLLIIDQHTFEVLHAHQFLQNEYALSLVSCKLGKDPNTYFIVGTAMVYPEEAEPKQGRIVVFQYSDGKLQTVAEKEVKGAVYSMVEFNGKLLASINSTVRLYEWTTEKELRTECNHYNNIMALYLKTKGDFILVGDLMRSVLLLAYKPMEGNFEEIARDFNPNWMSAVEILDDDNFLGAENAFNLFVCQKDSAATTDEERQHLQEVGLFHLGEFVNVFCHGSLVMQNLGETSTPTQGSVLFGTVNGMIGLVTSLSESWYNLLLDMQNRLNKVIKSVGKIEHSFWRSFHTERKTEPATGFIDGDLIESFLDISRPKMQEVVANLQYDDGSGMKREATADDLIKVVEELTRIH
Experimental: NCI-H1155 and ABC-1 were taken as representative of N-Myc positive NSCLC. NCI-H2023 and NCI-H441 as of N-Myc low representatives. 10A: western blotting analysis performed after 6 (NCI-H1155 and ABC-1) or 24 hr (NCI-H2023 and NCI-H441) posttreatment. […] 10B: corresponding densitometry analyses of GSPT1 normalized to GAPDH. DC50 and Dmax as indicated.
NCI-H1155 and ABC-1 were taken as representative of N-Myc high NSCLC. NCI-H2023 and NCI-H441 as of N-Myc low representatives. Left: densitometry analysis of GSPT1 normalized to GAPDH from western blotting following treatment with Compound 345 (as indicated). Right: 72 hr viability assay following treatment with Compound 345 as assessed by Cell Titer Glo. For both the GSPT1 expression plot and the cell viability plot, two Myc-driven cancer cell lines are represented by upright triangles and diamonds. Two non-Myc-driven cancer cell lines are represented by upside down triangles and circles.
NCI-H1155 and NCI-H2023 were taken as representative of N-Myc high and low NSCLC. 12A: western blot analysis probing for GSPT1 and N-Myc following treatment with Compound 345 (as indicated). Tubulin was used as a loading control. N-Myc could not be detected by western blotting in the NCI-H2023 line. 12B: Single-sample gene set enrichment analysis (ssGSEA) results for a Myc target gene set at 6 hours (left) and 24 hours (right) after treatment. ssGSEA scores were normalized to DMSOs for each cell line and averaged for three replicates. Error bars denote+/−1 s.d. across replicates.
NCI-H1836 and NCI-H1876 were taken as two representatives of L-Myc high SCLC. Western blot analysis probing for GSPT1 and L-Myc following treatment with Compound 345 as indicated. GAPDH was used as a loading control.
FIGS. 16A, 16B and 16C: Activity of Compound 345 in the c-Myc high multiple myeloma MM1S cell line. […] GAPDH was used as a loading control. […] Lenalidomide was used as a benchmark. 16C: Antiproliferative activity of Compound 345 (as indicated) following treatment with Compound 345 for 72 hr as assessed by Cell Titer Glo assay.
(§1) FIGS. 18A, 18B and 18C: Activity of Compound 345 in the c-Myc high WSU-DLCL2 lymphoma cell line. […] GAPDH was used as a loading control. 18B: Antiproliferative activity of Compound 345 (as indicated) following treatment with Compound 345 for 72 hr as assessed by Cell Titer Glo assay. […] Mice were dosed daily PO with vehicle or Compound 345 at 3, 10 mg/kg (as indicated). Tumor volumes were measured twice weekly. X-axis represents the number of days for treatment duration; y-axis represents mean tumor volume (in mm^3)±SEM. CHOP was used as a positive control for this model. Drug-free vehicle is represented by black circles; CHOP combination represented by light squares; Compound 345 3 mg/kg represented by triangles; Compound 345 10 mg/kg represented by dark squares.
as §1, with “19A, 19B,” for “18A, 18B”, “19C:” for “18C:”, “DOHH-2” for “WSU-DLCL2”, “19B:” for “18B:”, “model.” for “model. Drug-free vehicle is represented by black circles; CHOP combination represented by light squares; Compound 345 3 mg/kg represented by triangles; Compound 345 10 mg/kg represented by dark squares.”
Western blot analysis performed 24 hr post treatment initiation. GAPDH was used as a loading control. GSPT1 DC50 and Dmax as indicated.

[2] = target: T2, Full length wild-type cereblon CRBN (Homo sapiens, UniProt Q96SW2); assay: Fluorescence polarization (FP) assay indicating cereblon binding; conditions: read-out: IC50 value
T2 construct: Full length wild-type cereblon CRBN (80.0 nM, 10 μL) was incubated in assay buffer
T2 sequence (Q96SW2 whole entry): as the sequence (Q96SW2 whole entry) above
Outline: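 Full-length wild-type CRBN at 80.0 nM was preincubated 30 min at room temperature with compound (12-point curve, 300–0.937 or 3000–9.3 nM) in 20 mM HEPES pH 8.0, 150 NaCl, 0.5 mM TCEP, 0.05% Tween 20. Cy5-type thalidomide-based probe added at 5 nM final; FP read after 12 h (ex 590/em 675 nm), normalized to DMSO, IC50 fitted.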

[3] = tested on: HMEC engineered to express c-Myc tagged with EGFP; assay: 3D spheroid assay, myc-HMEC (CellTiterGlo3D); format: cell-based; conditions: Homo sapiens, 120 h, myc-HMEC, 5 days, read-out: 3D spheroid assay Code (EC50, myc-HMEC assay)
Experimental: (§2) Human mammary epithelial cells (HMEC) were engineered to express either c-Myc tagged with EGFP or EGFP alone (non myc) (analogous but distinct from Kessler J D et al, Science. 2012 Jan. 20; 335(6066):348-53. doi: 10.1126/science.1212728; Hsu T Y et al, Nature. 2015 Sep. 17; 525(7569):384-8. doi: 10.1038/nature14985). The engineered cells were seeded at 1000 (myc) or 4000 (non myc) cells/well in a 384 ultra-low attachment plate in a total volume of 40 μL HMEC cell culture media (DMEM/F12+10% HI-FBS+15 mM HEPES+0.5 ug/ml Hydrocortisone+10 ug/ml Insulin+20 ng/ml EGF). Plates were spun at 1200 rpm for 5 minutes at room temperature to ensure that cells have gathered in the middle of the well and incubated at 37° C. for 48 hrs before firing with compounds. On Day 2 (48 h post seeding) cells were imaged (brightfield and EGFP fluorescence) using the Celigo imaging cytometer prior to firing compounds. For primary screens, compounds were added at three concentrations (1.25, 10 and 30 uM) in a volume of 120 nL using the ECHO acoustic dispenser and spun at 2000 rpm for 2 minutes at room temperature before incubating at 37° C. for 5 days. […] On Day 7, prior to measuring cell viability using CellTiterGlo3D, cells were imaged (brightfield and EGFP fluorescence) on the Celigo imaging cytometer. The CellTiterGlo3D reagent is added at 30 uL/well and incubated at room temperature for 30 mins. After 30 mins of incubation, luminescence readings were recorded using the Perkin Elmer EnVision reader.

[4] = tested on: HMEC engineered to express EGFP alone (non myc); assay: 3D spheroid assay, non myc-HMEC (CellTiterGlo3D); format: cell-based; conditions: Homo sapiens, 120 h, 5 days, read-out: 3D spheroid assay Code (EC50, non myc-HMEC assay)
Experimental: as §2

GSPT1 [5] = target: T1, GSPT1; assay: GSPT1 degradation immunofluorescence assay in CAL-51 cells; format: cell-based; parameters: endogenous in cells; host or cells: CAL-51 (DSMZ ACC302); conditions: 6 hours, Table 4, read-out: Activity for GSPT1 degradation, Code (DC50)
Experimental: CAL-51 cells were purchased from DSMZ (cat. Number ACC302), sub-cultured in 90% Dulbecco's MEM (4.5 g/L glucose, Gibco 11965)+10% heat inactivated FBS (BioConcept, 2-01F1361) and incubated at 37° C., 5% CO2. For the assay, imaging microtiterplate Cell Carrier 96 Ultra (Perkin Elmer 6055302) were pre-coated with Fibronectin (Sigma F085, 30 μl at 0.2 μg/ml) in PBS (100 μl, Gibco 14190) for 45 min at room temperature, rinsed with PBS and CAL-51 cells (30K cells/well) were plated and let to adhere overnight. Cells were treated with compounds typically using a serial dilution ranging from 30 μM to 0.1 nM for 6 hours. Compounds were stored at 10 mM DMSO stocks. Vehicle (DMSO), positive (CC-885, 10 μM) and rescue controls (positive control plus 0.2 μM bortezomib) were also included at this stage. Cells were subsequently rinsed with PBS and fixed in 10% Formalin solution (50 μl, Sigma HT5011)) for 20 mins at room temperature. Following three consecutive PBS washes (100 μl), cells were permeabilized in 0.1% Triton X-100 in PBS (Sigma 93443, 50 μl) for 15 mins at room temperature. Following three further PBS washes, 50 μl blocking buffer (1% BSA, Sigma A4503, in PBS) was added for 45 min for signal-to-noise reduction. Primary antibody (human GSPT1, Sigma HPA052488) was diluted in blocking buffer (dil. 1/300, 35 μl/well) and incubated with the cells overnight at 4° C. After three PBS washes, Alexa-fluor 488 coupled secondary antibodies (Invitrogen, A32731, dil. 1/1000), Alexa-fluor 647-Phalloidin (Invitrogen, A22287, dil. 1/200) and DAPI (Thermo, #62248, dil. 1/1000) were diluted in blocking buffer and incubated with the samples for 2 hours at room temperature. After three final PBS washes, samples were conserved in 100 μl PBS in the dark, until measurement. Image acquisition was performed on the Operetta High-Content Imager (Perkin-Elmer). Fluorescence intensity of Alexa-Fluor 488 (GSPT1), Alexa-Fluor 647 (Actin) and DAPI (Nucleus) were measured. For the determination of GSPT1 DC50 values, a custom algorithm implemented in the PerkinElmer image analysis software Harmony-Acapella® was developed. After user-defined setting of adjustment parameters, the analysis was run identically without human intervention for all image fields. DAPI staining of the nuclei was used to determine the location of cells using standard nuclei detection modules. Segmentation artifacts were removed by threshold-based filters for area, roundness and intensity. The outline of the cells was determined analogously from the sum of the normalized, smoothed DAPI and Actin channel, starting from each nucleus. The Alexa-Fluor 488 (GSPT1) signal intensity in each cell was finally measured, in order to obtain a Mean intensity per cell. GSPT1 degradation (DC50) was calculated after normalization to controls and data import in CDD vault Database, using non-linear regression.

Row | GSPT1 level with proteasome inhibitor added (GSPT1 [1]) | IC50 ([2]; bounds stated) [nM] | IC50 ([2]; bound stated) [nM] | DC50 (GSPT1 [5]) [nM] | Structure (SMILES) | EC50 [3] [nM] | EC50 [4] [nM]
1 | rescued GSPT1 from degradation | – | – | – | CC(C)C[C@H](NC(=O)[C@H](Cc1ccccc1)NC(=O)c1cnccn1)B(O)O [Bortezomib, reference compound] | – | –
2 | – | < 600 | – | – | COc1ccccc1CNC(=O)NCc1ccc2c(c1)C(=O)N(C1CCC(=O)NC1=O)C2 (stereo not drawn) [Compound 60] | > 2000 | > 10000
3 | – | < 600 | – | – | COc1ccc(CCNC(=O)NCc2ccc3c(c2)C(=O)N(C2CCC(=O)NC2=O)C3)cc1 (stereo not drawn) [Compound 51] | > 2000 | > 10000
4 | – | < 600 | < 1100 | > 300 | O=C1CCC(N2Cc3ccc(CNC(=O)Nc4ccc(Br)cc4)cc3C2=O)C(=O)N1 (stereo not drawn) [Compound 9] | > 2000 | > 10000
